Results published in patent US5684013A, “Tricyclic compounds useful for inhibition of g-protein function and for treatment of proliferative diseases” (Schering Corporation, priority 1995, dated 1997).
Several values for one entry are separate records, joined by “and”; a condition that tells them apart may be missing. Equal values may be shown once.

Test system: T24-BAG4 human bladder carcinoma cells
Test: Cell Mat Assay: inhibition of tumor cell growth
Assay type: cell-based
Settings: 336 h, tIC50, 14 d colony formation
Method: (§1) Normal human HEPM fibroblasts were planted in 3.5 cm dishes at a density of 5×10^4 cells/dish in 2 ml growth medium, and incubated for 3-5 d to achieve confluence. Medium was aspirated from each dish and the indicator tumor cells, T24-BAG4 human bladder carcinoma cells expressing an activated H-ras gene, were planted on top of the fibroblast monolayer at a density of 2×10^3 cells/dish in 2 ml growth medium, and allowed to attach overnight. Compound-induced colony inhibition was assayed by addition of serial dilutions of compound directly to the growth medium 24 h after tumor cell planting, and incubating cells for an additional 14 d to allow colony formation. Assays were terminated by rinsing monolayers twice with phosphate-buffered saline (PBS), fixing the monolayers with a 1% glutaraldehyde solution in PBS, then visualizing tumor cells by staining with X-Gal (Price, J., et al., Lineage analysis in the vertebrate nervous system by retrovirus-mediated gene transfer, Proc. Natl. Acad. Sci. 84, 156-160(1987)). In the colony inhibition assay, compounds were evaluated on the basis of two IC50 values: the concentration of drug required to prevent the increase in tumor cell number by 50% (tIC50) and the concentration of drug required to reduce the density of cells comprising the cell mat by 50% (mIC50). Both IC50 values were obtained by determining the density of tumor cells and mat cells by visual inspection and enumeration of cells per colony and the number of colonies under the microscope. The therapeutic index of the compound was quantitatively expressed as the ratio of mIC50 /tIC50, with values greater than one indicative of tumor target specificity.

IC50	SMILES
12.5 µM	O=S(=O)(c1ccc(F)cc1)N1CCC/C(=C2\c3ccc(Cl)cc3CCc3cccnc32)C1 [Compound E-2H]

Test system: Normal human HEPM fibroblasts
Test: Cell Mat Assay: inhibition of normal cell growth (cell mat)
Assay type: cell-based
Settings: Fibroblast, mIC50, normal cell monolayer
Method: as §1

SMILES	IC50
O=S(=O)(c1ccc(F)cc1)N1CCC/C(=C2\c3ccc(Cl)cc3CCc3cccnc32)C1 [Compound E-2H]	> 25 µM

Target: T1, farnesyl protein transferase (FPT) (Rattus norvegicus, UniProt Q02293+Q04631)
T1 construct: were partially purified from rat brain by ammonium sulfate fractionation; from tissue; host or cells: rat brain
Test: In vitro enzyme assay: inhibition of farnesyl protein transferase (FPT), Ras-CVLS farnesylation
Assay type: biochemical
Settings: 14 μM; read-out: FPT inhibition (percent)
Excerpt: 1. In vitro enzyme assays: Inhibition of farnesyl protein transferase and geranylgeranyl protein transferase.
Both farnesyl protein transferase (FPT) and geranylgeranyl protein transferase (GGPT) I were partially purified from rat brain by ammonium sulfate fractionation followed by Q-Sepharose (Pharmacia, Inc.) anion exchange chromatography essentially as described by Yokoyama et al (Yokoyama, K., et al., (1991), A protein geranylgeranyltransferase from bovine brain: Implications for protein prenylation specificity, Proc. Natl. Acad. Sci USA 88: 5302-5306, the disclosure of which is incorporated herein by reference thereto). Human farnesyl protein transferase was also expressed in E. coli, using cDNA clones encoding both the a and b subunits. The methods used were similar to those published (Omer, C. et al., (1993), Characterization of recombinant human farnesyl protein transferase: Cloning, expression, farnesyl diphosphate binding, and functional homology with yeast prenyl-protein transferases, Biochemistry 32:5167-5176). Human farnesyl protein transferase was partially-purified from the soluble protein fraction of E. coli as described above. the tricyclic farnesyl protein transferase inhibitors disclosed herein inhibited both human and rat enzyme with similar potencies. Two forms of val^12 -Ha-Ras protein were prepared as substrates for these enzymes, differing in their carboxy terminal sequence. One form terminated in cysteine-valine-leucine-serine (Ras-CVLS) the other in cystein-valine-leucine-leucine (Ras-CVLL). Ras-CVLS is a substrate for the farnesyl protein transferase while Ras-CVLL is a substrate for geranylgeranyl protein transferase I. The cDNAs encoding these proteins were constructed so that the proteins contain an amino-terminal extension of 6 histidine residues. Both proteins were expressed in Escherichia coli and purified using metal chelate affinity chromatography. The radiolabelled isoprenyl pyrophosphate substrates, [^3 H]farnesyl pyrophosphate and [^3 H]geranylgeranyl pyrophosphate, were purchased from DuPont/New England Nuclear.
Several methods for measuring farnesyl protein transferase activity have been described (Reiss et al 1990, Cell 62: 81; Schaber et al 1990, J. Biol. Chem. 265: 14701; Manne et al 1990, PNAS 87: 7541; and Barbacid & Manne 1993, U.S. Pat. No. 5,185,248). The activity was assayed by measuring the transfer of [^3 H]farnesyl from [^3 H]farnesyl pyrophosphate to Ras-CVLS using conditions similar to those described by Reiss et al. 1990 (Cell 62: 81) The reaction mixture contained 40 mM Hepes, pH 7.5; 20 mM magnesium chloride; 5 mM dithiothreitol; 0.25 μM [^3 H]farnesyl pyrophosphate; […] Q-Sepharose-purified farnesyl protein transferase; the indicated concentration of tricyclic compound or dimethylsulfoxide (DMSO) vehicle control (5% DMSO final); and […] Ras-CVLS in a total volume of […]. The reaction was allowed to proceed for 30 minutes at room temperature and then stopped with 0.5 ml of 4% sodium dodecyl sulfate (SDS) followed by 0.5 ml of cold 30% trichloracetic acid (TCA). Samples were allowed to sit on ice for 45 minutes and precipitated Ras protein was then collected on GF/C filter paper mats using a Brandel cell harvester. Filter mats were washed once with 6% TCA, 2% SDS and radioactivity was measured in a Wallac 1204 Betaplate BS liquid scintillation counter. Percent inhibition was calculated relative to the DMSO vehicle control.

inhibition at 14 µM	SMILES
11%	O=C(Cc1ccncc1)N1CC/C(=C2/c3ccc(Cl)cc3CCc3cccnc32)C1 [Compound E-3A]
37%	O=C(Cc1ccncc1)N1CC/C(=C2\c3ccc(Cl)cc3CCc3cccnc32)C1 [Compound E-3M]

Same assay, conditions: 15 μM; read-out: FPT inhibition (percent)

inhibition at 15 µM	SMILES
15%	CS(=O)(=O)N1CCC/C(=C2\c3ccc(Cl)cc3CCc3cccnc32)C1 [Compound E-2M]

Same assay, conditions: 42 μM; read-out: FPT inhibition (percent)

inhibition at 42 µM	SMILES
33%	COc1ccc(S(=O)(=O)N2CCC/C(=C3\c4ccc(Cl)cc4CCc4cccnc43)C2)cc1 [Compound E-2G]

Same assay, conditions: 50 μM; read-out: FPT inhibition (percent)

inhibition at 50 µM	SMILES
33%	O=C(c1ccco1)N1CC/C(=C2/c3ccc(Cl)cc3CCc3cccnc32)C1 [Compound E-3B]

Same assay, conditions: Table 2

FPT IC50	SMILES
inactive	O=C(c1ccccc1)N1CCC/C(=C2\c3ccc(Cl)cc3CCc3cccnc32)C1 [Compound E-7]

Same assay, conditions: Table 2; read-out: FPT IC50

IC50	SMILES
3.3 µM	O=S(=O)(c1cccs1)N1CC/C(=C2\c3ccccc3CCc3cccnc32)C1 [Compound E-1B]
0.84 µM	O=S(=O)(c1cccs1)N1CCC/C(=C2\c3ccc(Cl)cc3CCc3cc(Br)cnc32)C1 [Compound E-1D]
4.8 µM	O=S(=O)(c1cccs1)N1CCC/C(=C2/c3ccc(Cl)cc3CCc3cccnc32)C1 [Compound E-1J]
> 34 µM	O=C(NCc1ccc(S(=O)(=O)N2CCC/C(=C3/c4ccc(Cl)cc4CCc4cccnc43)C2)s1)c1ccccc1 [Compound E-1K]
< 0.45 µM and 0.52 µM	O=S(=O)(c1cccs1)N1CC/C(=C2\c3ccc(Cl)cc3CCc3cccnc32)C1 [Compound E-1]
2.8 µM	O=S(=O)(c1ccccc1)N1CC/C(=C2\c3ccccc3CCc3cccnc32)C1 [Compound E-2C]
0.58 µM	O=S(=O)(c1ccccc1)N1CCC/C(=C2\c3ccc(Cl)cc3CCc3cc(Br)cnc32)C1 [Compound E-2D]
1.34 µM	O=S(=O)(c1ccc(F)cc1)N1CCC/C(=C2\c3ccc(Cl)cc3CCc3cccnc32)C1 [Compound E-2H]
> 39.4 µM	CC(=O)Nc1ccc(S(=O)(=O)N2CCC/C(=C3\c4ccc(Cl)cc4CCc4cccnc43)C2)cc1 [Compound E-2J]
> 13 µM	Cc1ccc(S(=O)(=O)N2CCC/C(=C3\c4ccc(Cl)cc4CCc4cccnc43)C2)cc1 [Compound E-2K]
> 12 µM	Cc1cc(C)c(S(=O)(=O)N2CCC/C(=C3\c4ccc(Cl)cc4CCc4cccnc43)C2)c(C)c1 [Compound E-2L]
> 13 µM	O=S(=O)(Cc1ccccc1)N1CCC/C(=C2\c3ccc(Cl)cc3CCc3cccnc32)C1 [Compound E-2N]
3.3 µM	O=S(=O)(c1ccccc1)N1CCC/C(=C2/c3ccc(Cl)cc3CCc3cccnc32)C1 [Compound E-2P]
> 40 µM	O=[N+]([O-])c1ccc(S(=O)(=O)N2CCC/C(=C3/c4ccc(Cl)cc4CCc4cccnc43)C2)cc1 [Compound E-2Q]
> 42 µM	COc1ccc(S(=O)(=O)N2CCC/C(=C3/c4ccc(Cl)cc4CCc4cccnc43)C2)cc1 [Compound E-2R]
> 43 µM	O=S(=O)(c1ccc(F)cc1)N1CCC/C(=C2/c3ccc(Cl)cc3CCc3cccnc32)C1 [Compound E-2S]
33.5 µM	CC(=O)Nc1ccc(S(=O)(=O)N2CCC/C(=C3/c4ccc(Cl)cc4CCc4cccnc43)C2)cc1 [Compound E-2T]
6.4 µM	O=S(=O)(c1ccccc1)N1CCCC(C2c3ccc(Cl)cc3C=Cc3cccnc32)C1 (centres unmarked) [Compound E-2U]

IC50	SMILES
44 µM	CS(=O)(=O)N1CCCC(C2c3ccc(Cl)cc3C=Cc3cccnc32)C1 (centres unmarked) [Compound E-2V]
8 µM	O=C(Cc1cccnc1)N1CCCC(C2c3ccc(Cl)cc3CCc3cccnc32)C1 (centres unmarked) [Compound E-3C]
> 13.9 µM	O=C(Cc1ccncc1)N1CCCC(C2c3ccc(Cl)cc3CCc3cccnc32)C1 (centres unmarked) [Compound E-3D]
7.8 µM	O=C(Cc1cccnc1)N1CCC/C(=C2\c3ccc(Cl)cc3CCc3cccnc32)C1 [Compound E-3E]
> 14 µM	O=C(Cc1ccncc1)N1CCC/C(=C2\c3ccc(Cl)cc3CCc3cccnc32)C1 [Compound E-3F]
> 45 µM	O=C(CCc1ccccc1)N1CCC/C(=C2\c3ccc(Cl)cc3CCc3cccnc32)C1 [Compound E-3G]
5.1 µM	O=C(Cc1cccnc1)N1CCC/C(=C2/c3ccc(Cl)cc3CCc3cccnc32)C1 [Compound E-3J]
> 14 µM	O=C(Cc1ccncc1)N1CCC/C(=C2/c3ccc(Cl)cc3CCc3cccnc32)C1 [Compound E-3K]
> 45 µM	O=C(CCc1ccccc1)N1CCC/C(=C2/c3ccc(Cl)cc3CCc3cccnc32)C1 [Compound E-3L]
4.2 µM	O=C(CSc1ccncc1)N1CC/C(=C2\c3ccc(Cl)cc3CCc3cccnc32)C1 [Compound E-3N]
6.9 µM	O=C(CSc1ccncc1)N1CC/C(=C2/c3ccc(Cl)cc3CCc3cccnc32)C1 [Compound E-3]
7.5 µM	O=S(=O)(c1cccnc1)N1CCCC(C2c3ccc(Cl)cc3C=Cc3cccnc32)C1 (centres unmarked) [Compound E-4A]
8.8 µM	O=S(=O)(c1cccnc1)N1CCC/C(=C2/c3ccc(Cl)cc3CCc3cccnc32)C1 [Compound E-4B]
0.97 µM	O=S(=O)(c1cccnc1)N1CCC/C(=C2\c3ccc(Cl)cc3CCc3cccnc32)C1 [Compound E-4]
> 14 µM	O=C(Nc1ccccc1)N1CCC/C(=C2\c3ccc(Cl)cc3CCc3cccnc32)C1 [Compound E-5]
> 13 µM	O=C(Sc1ccccc1)N1CCC/C(=C2\c3ccc(Cl)cc3CCc3cccnc32)C1 [Compound E-6]
> 14.4 µM	O=C(c1cccnc1)N1CCC/C(=C2\c3ccc(Cl)cc3CCc3cccnc32)C1 [Compound E-7A]
> 14 µM	O=C(Cc1ccccc1)N1CCC/C(=C2\c3ccc(Cl)cc3CCc3cccnc32)C1 [Compound E-7B]
